# Laboratory results published in PMC4840323, “Plasiatine, an Unprecedented Indole–Phenylpropanoid Hybrid from Plantago asiatica as a Potent Activator of the Nonreceptor Protein Tyrosine Phosphatase Shp2” (Scientific Reports, 2016).
# Target: T1, Shp2 (Src homology 2-containing phosphotyrosine phosphatase 2) (Homo sapiens, UniProt Q06124)
# T1 construct: gene PTPN11; GST-PTP fusion proteins of human Shp2 (residues 205–597)
# T1 sequence (Q06124 205-593): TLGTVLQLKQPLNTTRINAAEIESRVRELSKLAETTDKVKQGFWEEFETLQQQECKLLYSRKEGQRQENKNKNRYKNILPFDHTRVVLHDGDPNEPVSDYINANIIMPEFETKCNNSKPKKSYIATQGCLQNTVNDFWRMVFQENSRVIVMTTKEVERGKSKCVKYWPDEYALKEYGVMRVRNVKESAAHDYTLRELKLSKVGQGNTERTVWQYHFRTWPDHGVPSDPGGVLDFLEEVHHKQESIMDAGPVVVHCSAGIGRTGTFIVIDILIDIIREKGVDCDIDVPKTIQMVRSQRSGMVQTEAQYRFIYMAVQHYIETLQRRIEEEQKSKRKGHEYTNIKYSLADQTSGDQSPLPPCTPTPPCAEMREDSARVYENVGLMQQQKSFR
# Assay: activation of recombinant GST-Shp2 phosphatase activity, DiFMUP fluorescence assay
# Format: biochemical
compound,measurement,value
"COc1cc([C@H]2Oc3cc4c(cc3[C@@H]2CO)NC(=O)[C@@]4(O)CC#N)ccc1O [compound 1, plasiatine]",EC50,970 nM
